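Five concentrations, 48 hours, 96-well plates. TGI denotes the concentration required for complete inhibition of growth.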
Legend:
Test in all cases: NCI tumour cell line growth inhibition, 48 h
[1] = test system: UACC-257 melanoma
[2] = test system: HCC-2998 colon
[3] = test system: MCF7 breast
[4] = test system: NCI-H460 lung
[5] = test system: K-562 leukemia
[6] = test system: SK-MEL-28 melanoma
[7] = test system: SF-268 CNS
[8] = test system: SK-MEL-5 melanoma
[9] = test system: HCT-116 colon
[10] = test system: HS 578T breast
[11] = test system: OVCAR-4 ovarian
[12] = test system: 786-0 renal
[13] = test system: TK-10 renal
[14] = test system: U251 CNS
[15] = test system: CCRF-CEM leukemia
[16] = test system: BT-549 breast
[17] = test system: HT29 colon
[18] = test system: SNB-19 CNS
[19] = test system: KM12 colon
[20] = test system: MDA-MB-231 breast
[21] = test system: NCI/ADR-RES ovarian
[22] = test system: M14 melanoma
[23] = test system: OVCAR-5 ovarian
[24] = test system: OVCAR-3 ovarian
[25] = test system: SR leukemia
[26] = test system: MDA-N
[27] = test system: OVCAR-8 ovarian
[28] = test system: SK-OV-3 ovarian
[29] = test system: EKVX NSCLC
[30] = test system: NCI-H522 lung
[31] = test system: HOP-62 NSCLC
[32] = test system: NCI-H23 lung
[33] = test system: UO-31 renal
[34] = test system: COLO 205 colon
[35] = test system: A549 NSCLC
[36] = test system: CAKI-1 renal
[37] = test system: MOLT-4 leukemia
[38] = test system: SW-620 colon
[39] = test system: PC-3 prostate
[40] = test system: SK-MEL-2 melanoma
[41] = test system: RXF 393 renal
[42] = test system: RPMI-8226 leukemia
[43] = test system: SNB-75 CNS
[44] = test system: T-47D breast
[45] = test system: ACHN renal
[46] = test system: HOP-92 NSCLC
[47] = test system: A498 renal
[48] = test system: SN12C renal
[49] = test system: SF-295 CNS
[50] = test system: HCT-15 colon
[51] = test system: DU-145 prostate
[52] = test system: MDA-MB-435
[53] = test system: HL-60(TB) leukemia
[54] = test system: NCI-H226 lung
[55] = test system: UACC-62 melanoma
[56] = test system: IGROV1 ovarian
[57] = test system: MALME-3M melanoma
[58] = test system: SF-539 CNS
[59] = test system: LOX IMVI melanoma

With OCCO[P+]1(OCCO)n2c3ccc2C(c2ccccc2)=C2C=CC(=N2)C(c2ccccc2)=c2ccc(n21)=C(c1ccccc1)C1=NC(=C3c2ccccc2)C=C1 the TGI [1] was 0.0545 µM, the TGI [2] was 0.327 µM and the TGI [3] was > 100 µM. For the same molecule, the TGI [4] was 1.04 µM, the TGI [5] was 18 µM and the TGI [6] was 0.466 µM. For the same molecule, the TGI [7] was 2.15 µM, the TGI [8] was 0.164 µM and the TGI [9] was 0.203 µM. For the same molecule, the TGI [10] was 0.206 µM, the TGI [11] was 2.17 µM and the TGI [12] was 1.28 µM. For the same molecule, the TGI [13] was 1.5 µM, the TGI [14] was 1.25 µM and the TGI [15] was 0.252 µM. The TGI [16] was 0.305 µM, the TGI [17] was 3.36 µM and the TGI [18] was 1.96 µM. For the same molecule, the TGI [19] was 0.21 µM, the TGI [20] was 0.275 µM and the TGI [21] was 41.4 µM. For the same molecule, the TGI [22] was 0.278 µM, the TGI [23] was 1.28 µM and the TGI [24] was 1.34 µM. For the same molecule, the TGI [25] was 0.294 µM, the TGI [26] was 0.092 µM and the TGI [27] was 0.17 µM. For the same molecule, the TGI [28] was 0.569 µM, the TGI [29] was 1.04 µM and the TGI [30] was 0.2 µM. For the same molecule, the TGI [31] was 1.72 µM, the TGI [32] was 0.327 µM and the TGI [33] was 4.06 µM. For the same molecule, the TGI [34] was 0.0651 µM, the TGI [35] was 1.93 µM and the TGI [36] was 2.59 µM. The TGI [37] was 0.701 µM, the TGI [38] was 1.09 µM and the TGI [39] was 1.59 µM. The TGI [40] was 0.0438 µM, the TGI [41] was 0.563 µM and the TGI [42] was 65.7 nM. The TGI [43] was 0.273 µM, the TGI [44] was 2.09 µM and the TGI [45] was 1.1 µM. For the same molecule, the TGI [46] was 0.399 µM, the TGI [47] was 1.49 µM and the TGI [48] was 0.125 µM. The TGI [49] was 0.513 µM, the TGI [50] was 3.59 µM and the TGI [51] was 1.74 µM. The TGI [52] was 0.132 µM and the TGI [53] was 0.222 µM.
Work on CN(C)CCOC1(CC2CCCCC2)CCC(C(C)(C)C)CC1 (stereo not given) yielded a TGI [1] of 11.8 µM, a TGI [2] of 11.7 µM and a TGI [3] of 7.73 µM. For the same molecule, the TGI [4] was 9.65 µM, the TGI [5] was 5.93 µM and the TGI [6] was 12.3 µM. The TGI [7] was 25.4 µM, the TGI [8] was 4.8 µM and the TGI [9] was 14.7 µM. The TGI [10] was 23.4 µM, the TGI [11] was 19.8 µM and the TGI [12] was 5.91 µM. It also gave a TGI [54] of 21.2 µM, a TGI [55] of 20.3 µM and a TGI [13] of 25.5 µM. For the same molecule, the TGI [14] was 13.2 µM, the TGI [15] was 7.62 µM and the TGI [16] was 20.4 µM. It also gave a TGI [17] of 7.02 µM, a TGI [18] of 21.9 µM and a TGI [19] of 14.4 µM. For the same molecule, the TGI [20] was 13.5 µM, the TGI [21] was 23.8 µM and the TGI [56] was 22.2 µM. For the same molecule, the TGI [22] was 4.61 µM, the TGI [23] was 17.5 µM and the TGI [24] was 18.4 µM. For the same molecule, the TGI [25] was 4.57 µM, the TGI [26] was 13.1 µM and the TGI [27] was 19.3 µM. The TGI [57] was 6.65 µM, the TGI [28] was 24.7 µM and the TGI [58] was 10.6 µM. For the same molecule, the TGI [29] was 22 µM, the TGI [30] was 8.49 µM and the TGI [31] was 11.2 µM. It also gave a TGI [32] of 21.8 µM, a TGI [33] of 15.6 µM and a TGI [34] of 6.13 µM. The TGI [35] was 17.6 µM, the TGI [36] was 19.1 µM and the TGI [59] was 6.79 µM. For the same molecule, the TGI [37] was 7.67 µM, the TGI [38] was 12.7 µM and the TGI [39] was 13.2 µM. It also gave a TGI [40] of 13.7 µM, a TGI [41] of 8.96 µM and a TGI [42] of 4900 nM. The TGI [43] was 19.1 µM, the TGI [44] was 13.6 µM and the TGI [45] was 20 µM. For the same molecule, the TGI [46] was 17.5 µM, the TGI [47] was 12.9 µM and the TGI [48] was 20.6 µM. For the same molecule, the TGI [49] was 12 µM, the TGI [50] was 13.4 µM and the TGI [51] was 19.6 µM. The TGI [52] was 13.8 µM and the TGI [53] was 7.35 µM.
CC(C)C(C/C=C1\CC(CO)(COC(=O)CC(C(C)C)C(C)C)OC1=O)C(C)C (stereo not given) gave a TGI [1] of 29.5 µM, a TGI [2] of 18.7 µM and a TGI [3] of 31.3 µM. It also gave a TGI [4] of 21.7 µM, a TGI [5] of 19.6 µM and a TGI [6] of 29.3 µM. It also gave a TGI [7] of 27.6 µM, a TGI [8] of 23 µM and a TGI [9] of 27.8 µM. For the same molecule, the TGI [10] was 15.8 µM, the TGI [11] was 33 µM and the TGI [12] was 21.1 µM. It also gave a TGI [54] of 24.4 µM, a TGI [55] of 29 µM and a TGI [13] of 21.8 µM. The TGI [14] was 29.4 µM, the TGI [15] was 36.2 µM and the TGI [16] was 27.8 µM. For the same molecule, the TGI [17] was 32.6 µM, the TGI [18] was 26.5 µM and the TGI [19] was 28.6 µM. The TGI [20] was 27.2 µM, the TGI [21] was 31.8 µM and the TGI [56] was 28.1 µM. The TGI [22] was 24.6 µM, the TGI [23] was 26.9 µM and the TGI [24] was 30.6 µM. It also gave a TGI [25] of 31.6 µM, a TGI [26] of 18 µM and a TGI [27] of 33 µM. For the same molecule, the TGI [57] was 14.5 µM, the TGI [28] was 32.1 µM and the TGI [58] was 33 µM. For the same molecule, the TGI [29] was 23.5 µM, the TGI [30] was 27.6 µM and the TGI [31] was 20.5 µM. For the same molecule, the TGI [32] was 29 µM, the TGI [33] was 20 µM and the TGI [34] was 9.75 µM. For the same molecule, the TGI [35] was 18.8 µM, the TGI [36] was 20.3 µM and the TGI [59] was 27.3 µM. The TGI [37] was 21.4 µM, the TGI [38] was 21.6 µM and the TGI [39] was 24.6 µM. For the same molecule, the TGI [40] was 38.2 µM, the TGI [41] was 28.4 µM and the TGI [43] was 22.9 µM. The TGI [44] was 30.7 µM, the TGI [45] was 22.5 µM and the TGI [46] was 16.6 µM. For the same molecule, the TGI [47] was 25.5 µM, the TGI [48] was 22.1 µM and the TGI [49] was 20.2 µM. The TGI [50] was 34.9 µM, the TGI [51] was 22 µM and the TGI [52] was 19.7 µM. For the same molecule, the TGI [53] was 18.8 µM.

Source: PubChem BioAssay (NCI)
